One test deals with Cathepsin D (Homo sapiens, UniProt P07339). In words: Assay 3: cathepsin D inhibition activity (non-cellular assay, chromogenic substrate). In kind it is biochemical. Further details: Frozen human placental tissue was thawed and homogenized; from tissue; host or cells: human placenta. Particulars: cathepsin D from human placental tissue; for Ki: chromogenic substrate, pH 3.7, 37°C. Here is the method:
A third non-cellular assay for determining in vitro aspartyl protease inhibitory activity is generally described in Jupp, R.A. et al., (1990) Biochem. J., 265:871-878 and Rao et al., J. Med. Chem. (1993), in press. The assay is carried out by incubating a test compound with a suitable aspartyl protease, such as cathepsin D, in the presence of a chromogenic substrate. The inhibition constant, Ki, value may then be determined by quantifying the competitive inhibition of the hydrolysis of the chromogenic substrate. A variety of chromogenic substrates that are useful for assaying aspartyl protease activity are discussed in Dunn, et al., (1986) Biochem. J., 237:899-906. A preferred chromogenic substrate for a cathepsin D assay is disclosed in Scarborough, P.E. et al., Protein Science, (1993), 2:264-276.
Concentrations of substrate solutions and cleavage products may be verified using amino acid analysis. The enzyme preparations may be titrated with a tightly binding inhibitor to quantitate the active concentration of the enzyme. Enzyme concentrations are typically in the range of from 1-6 nM. Stock solutions of the test compound are prepared at concentrations ranging from 1.0 to 5.0 mg/mL, and then 50-100 µL portions of these stock solutions may be further diluted to a concentration in the range of 5 to 300 µM for rate determinations.
[…] Then, the test compounds are assayed over a concentration range of, for example, 5 to 300 µM for rate determinations.
A decrease in absorbance in the range of 284-324 nm may be monitored using a spectrophotometer. Absorbance readings are typically taken at various timepoints. The initial velocities are then plotted versus the initial substrate concentration. […] Estimates of Ki may then be determined using the Dixon construction. Dixon, M., (1953) Biochem J., 55:170-171.
If the ratio of the total active enzyme concentration to the estimated Ki value ([E]t/Ki) is less than 0.2, then the precise Ki value may be computed by using a non-linear curve fitting program based on the equation: v= Vmax [S]/[S] + Km (1 + [I]/Ki ) [formula] where v is the initial rate, [S] is the initial substrate concentration, [I] is the inhibitor concentration and Km and Ki are defined above. […] P.J.F., (1972) Biochem J., 127:321-333. This Assay is exemplfied in Assay 3.
The homogenate was centrifuged at 10,000 rpm for 30 minutes in a Sorvall GSA rotor. The supernatant was adjusted to pH 3.7 using 5.7N HCl and then sodium acetate was added to a concentration of 0.1M. The resultant mixture was incubated for 30 minutes at 0°C, resulting in the formation of a precipitate. This precipitate was removed by centrifugation (30 minutes, 10,000 rpm). The acidic supernatent was applied to a chromatography column (pepstatinyl agarose equilibrated with 0.1M sodium acetate, pH 3.5, 0.1% Brij 35, and 1M NaCl), washed until the OD₂₈₀ of the effluent returned to baseline, and then eluted with 50mM Tris-HCl, pH 8.6, 0.1% Brij 35, and 1M NaCl. The eluent was dialyzed against 10mM sodium phosphate, pH 7.0, 0.1% Brij 35, and 0.1M NaCl, and then applied to a 1 mL DEAE-Sephacel column equilibrated with the same buffer. Cathepsin D was recovered in the breakthrough fraction.
The enzyme mixture (125 µL buffer (0.1M sodium formate at pH 3.7), 1 µL of a 1mM solution of test compound, 4 µL of DMSO, enzyme and water to provide a total volume of 230 µL) was vortexed and prewarmed for four minutes before the addition of the chromogenic substrate. After warming, the enzyme mixture was added to 20 µL of a […] dilution of substrate solution. A control reaction mixture was similarly prepared without the addition of the test compound. The percent of inhibition of the initial rate of reaction in the presence of a particular concentration of test compound (i.e. 4 µM) may be determined for the test compound by monitoring the reaction mixture in parallel to the control reaction. […]

A further test concerns the target T1, Human brain cathepsin D (Homo sapiens, UniProt P07339).
T1 construct: Human brain cathepsin D was purified from frozen post-mortem cortex; from tissue; host or cells: human post-mortem brain cortex
Put plainly: Assay 1: cathepsin D inhibition activity (non-cellular assay, porcine renin tetradecapeptide substrate, RP-HPLC). The conditions noted are these: purified human brain cathepsin D, pH 4.5, 44 µM porcine renin tetradecapeptide, 37°C. In kind it is biochemical. Here is the method: An example of a non-cellular assay that may be used to determine in vitro aspartyl protease inhibitory activity reacts partially purified human brain cathepsin D with a substrate, e.g., porcine renin tetradecapeptide. The resultant reaction mixture is divided into portions and each portion is incubated for a different period of time. After the reaction is stopped, the turnover of substrate in each portion is determined using reverse-phase HPLC. Protease inhibition activity may be calculated based on the rates of substrate turnover. This assay is exemplified in Assay 1, below. Human brain cathepsin D was purified from frozen post-mortem cortex substantially in accordance with the method of Nixon and Morotta, (1984) J. Neurochem. 43:507-516. The cortex material was prepared and applied to a DEAE-Sepharose® column. The flow through fraction was dialyzed against 50mM Tris-HCl, pH 7.5, and applied to concanavalin A Sepharose® and eluted with 50mM Tris, pH 7.5, 0.5M methyl α-D-mannopyranoside. The eluted cathepsin D activity was dialyzed against 25mM Tris, pH 7.5, and stored at -40°C (Con A pool) until use. For each assay, 50 μL of the Con A pool was diluted to 270 μL in 200mM sodium citrate, pH 4.5, 150mM sodium chloride (NaCl), and incubated for 10 minutes at 4°C with 15 μL of compound stock diluted in dimethylsulfoxide (DMSO). The substrate, porcine renin tetradecapeptide ([…] [SEQ ID NO:3], Bachem Bioscience, Inc., Philadelphia, PA), was added to each reaction mixture to yield a final concentration of 44 μM in a total volume of 300 μL. The samples were incubated at 37°C for 0, 10, 20, or 30 minutes, and then boiled for 5 minutes to stop the reaction. The samples were centrifuged in a microcentrifuge for 10 minutes at 14,000 rpm at 4°C. After centrifugation, 200 μL of each reaction was injected onto […] column (Vydac, Hesperia, CA) with a Perkin Elmer ISS 100 autosampler and eluted with a gradient eluent of 0-50% CH3CN in 0.1% CF3CO2H at 2 mL/min. Peptide product peaks were monitored at 220nm with a Perkin Elmer LC 95 detector and integrated with Rainin Dynamax software in order to quantitate activity.

The values that follow come from patent EP0652009A1, “Identification and use of protease inhibitors” (ELI LILLY AND COMPANY, priority 1993, dated 1995).

The term % inhibition denotes the share of the control response that was lost under treatment. A word on the Ki: it is the equilibrium dissociation constant of an inhibitor or competing ligand from its target. A lower Ki goes with higher affinity. For orientation: IC50 means the midpoint of a concentration-inhibition curve. A higher IC50 goes with weaker potency.

Non-standard residues stand in square brackets, D forms with d. Residues, ends and D or L forms follow the SMILES beside them. Sta = CC(C)C[C@H](N)[C@@H](O)CC(=O)O; N(iPr)Gly = CC(C)NCC(=O)O A value given as a limit tells only on which side of the number the result lay.

T1 sequence (P07339 65-412): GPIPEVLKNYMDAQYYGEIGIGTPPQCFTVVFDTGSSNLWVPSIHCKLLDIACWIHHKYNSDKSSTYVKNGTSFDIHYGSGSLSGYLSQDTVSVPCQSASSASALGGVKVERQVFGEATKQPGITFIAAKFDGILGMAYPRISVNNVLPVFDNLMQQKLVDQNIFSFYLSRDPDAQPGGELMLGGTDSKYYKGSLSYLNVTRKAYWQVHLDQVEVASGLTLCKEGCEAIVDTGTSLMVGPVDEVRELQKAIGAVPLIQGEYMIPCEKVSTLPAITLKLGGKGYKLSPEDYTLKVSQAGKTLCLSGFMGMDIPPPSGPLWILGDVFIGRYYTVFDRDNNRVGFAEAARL
Sequence of Cathepsin D (P07339 169-412 limits assumed): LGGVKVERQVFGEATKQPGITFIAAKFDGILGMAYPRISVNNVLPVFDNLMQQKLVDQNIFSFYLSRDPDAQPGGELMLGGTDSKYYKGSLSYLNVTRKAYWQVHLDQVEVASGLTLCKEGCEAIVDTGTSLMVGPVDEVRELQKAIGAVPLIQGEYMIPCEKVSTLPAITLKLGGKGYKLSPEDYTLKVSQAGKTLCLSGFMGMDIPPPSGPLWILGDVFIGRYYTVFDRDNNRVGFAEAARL
Sequence of Cathepsin D (P07339 65-162 limits assumed): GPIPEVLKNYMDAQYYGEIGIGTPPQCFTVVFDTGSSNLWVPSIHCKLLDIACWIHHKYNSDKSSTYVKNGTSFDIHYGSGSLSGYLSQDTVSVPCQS

For the compound `Cc1ccc(C(=O)C2NCCc3ccccc32)cc1C(=O)N[C@@H](Cc1ccccc1)[C@H](O)CN1C[C@H]2CCCC[C@H]2C[C@H]1C(=O)NC(C)(C)C` (relative stereo) [Example 30, [3S-(3R*,4aR*,8aR*,2'S*,3'R*)]-2-[2'-Hydroxy-3'-phenylmethyl-4'-aza-5'-oxo-5'-(3''-[1''',2''',3''',4'''-tetrahydroisoquinolin-1'''-ylcarbonyl]-6''-methyl)phenyl]pentyl-decahydroisoquinoline-3-N-t-butylcarboxamide], on Cathepsin D (4 µM test compound, inhibition of initial rate relative to control), the “% inhibition at 4µ M” value was 28%.

`Cc1cccc2ccc(C(=O)N[C@@H](CC(N)=O)C(=O)N[C@@H](Cc3ccccc3)[C@H](O)Cc3ccccc3C(=O)NC(C)(C)C)nc12` [Example 9, [1S-(1R*,4R*,5S*)]-N-(1-(2-Amino-2-oxoethyl)-2-oxo-3-aza-4-phenylmethyl-5-hydroxy-6-(2-(1-t-butylamino-1-oxomethyl)phenyl)hexyl)-8-methylquinolin-2-yl carboxamide]: affinity on Cathepsin D was put at a Ki of 820 nM.

`CC(C)C(NC(=O)C(Cc1cccc2ccccc12)NC(=O)OC(C)(C)C)C(=O)NC(Cc1ccccc1)C(O)Cc1ccccc1C(=O)NC(C)(C)C` (stereo not drawn) [Example 23, [2R-(2R*,3S*,6S*,9S*)]-N-t-Butyl-2-[2-hydroxy-3-phenylmethyl-4,7-diaza-5,8-dioxo-6-(1-methylethyl)-9-N(t-butoxycarbonyl)amino-10-naphth-1-yl]decyl benzamide] displayed a Ki at Cathepsin D of 73 nM.

On Cathepsin D, `CC(C)C(NC(=O)C(Cc1cccc2ccccc12)NC(=O)OC(C)(C)C)C(=O)NC(Cc1ccccc1)C(O)Cc1ccccc1C(=O)NC(C)(C)C` (stereo not drawn) [Example 24, [2R-(2R*,3S*,6S*,9R*)]-N-t-Butyl-2-[2-hydroxy-3-phenylmethyl-4,7-diaza-5,8-dioxo-6-(1-methylethyl)-9-N(t-butoxycarbonyl)amino-10-naphth-1-yl]decyl benzamide] yielded a Ki of 42 nM.

At Human brain cathepsin D, `CC(=O)NCC(=O)N[C@H](C(=O)N[C@H](C(=O)N[C@@H](CC(C)C)[C@@H](O)CC(=O)N[C@@H](C)C(=O)N[C@H](C(=O)O)[C@@H](C)O)C(C)C)C(C)C` [Example 41, CH3C(O)-Gly-Val-Val-Sta-Ala-Thr-OH] (Ac-GVV[Sta]AT-OH) showed an IC50 of 4 nM.

In turn, `CC(C)C[C@H](NC(=O)[C@@H](NC(=O)[C@@H](NC(=O)CNC(C)C)C(C)C)C(C)C)[C@@H](O)CC(=O)N[C@@H](C)C(=O)N[C@H](C(=O)O)[C@@H](C)O` [Example 42, (CH3)2CH-Gly-Val-Val-Sta-Ala-Thr-OH] (H-[N(iPr)Gly]VV[Sta]AT-OH) registered an IC50 on Human brain cathepsin D of 8 nM.

On Human brain cathepsin D, `CC(C)C[C@H](NC(=O)[C@@H](NC(=O)[C@@H](NC(=O)CN)C(C)C)C(C)C)[C@@H](O)CC(=O)N[C@@H](C)C(=O)N[C@H](C(=O)O)[C@@H](C)O` [Example 43, Gly-Val-Val-Sta-Ala-Thr-OH] (H-GVV[Sta]AT-OH) came in with an IC50 of 53 nM.

On to `CC(C)C[C@H](NC(=O)[C@@H](NC(=O)CN)C(C)C)[C@@H](O)CC(=O)N[C@@H](C)C(=O)N[C@H](C(=O)O)[C@@H](C)O` [Example 45, Gly-Val-Sta-Ala-Thr-OH] (H-GV[Sta]AT-OH), for which the IC50 at Human brain cathepsin D was > 250 nM.

`CC[C@H](C)[C@H](NC(=O)C[C@H](O)[C@H](CC(C)C)NC(=O)[C@@H](NC(=O)CNC(C)C)C(C)C)C(=O)N[C@@H](C)C(=O)N[C@H](C(=O)O)[C@@H](C)O` [Example 48, (CH3)2CH-Gly-Val-Sta-Ile-Ala-Thr-OH] (H-[N(iPr)Gly]V[Sta]IAT-OH): at Human brain cathepsin D, the IC50 was > 250 nM.
